The values that follow are results of earlier work, collected in patent US11103490B2, “Clevidipine emulsion formulations containing antimicrobial agents” (Chiesi Farmaceutici, S.P.A., priority 2010, dated 2021).

For series [1] the following is noted: in vivo.

As to `CCCC(=O)OCOC(=O)C1=C(C)NC(C)=C(C(=O)OC)C1c1cccc(Cl)c1Cl` (stereo not shown) [Clevidipine, clevidipine], the solubility in lipids entry is reported as “moderate to high” and the solubility in water entry is recorded as “low”. In series [1], the initial phase half-life entry is given as “about one” and the terminal half-life result was “approximately 15 minutes”.
